Data reported in patent US20120035187A1 (priority 2009, published 2012).
Marks after values point to notes of the source that are not given here.

Tests used:
Assay type in all cases: in vivo, hamster
[1] = test system: hamsters with cerebellar ataxia; assay: Rotarod test in hamsters with cerebellar ataxia; conditions: for Delayed days until the onset of cerebellar ataxia in hamster: 25 μg/kg body weight; for time (sec) endured until falling from rotarod apparatus: cerebellar ataxia hamsters, 25 μg/kg body weight i.p. once a day
Description: (§1) Since NK-4 was confirmed to have a neurodegenerative inhibitory action in Experiment 1, hamsters with cerebellar ataxia (cerebellar ataxia is called “cerebellar A” and hamsters with cerebellar ataxia are called “hamsters with cerebellar A”, hereinafter) as a suitable model for human neurodegenerative diseases (e.g., spinal cerebellar degeneration) were subjected to examine the influence of NK-4 administration on their behaviors and brain tissues. Twenty-five hamsters with natural mutation (Nna1 inhibition), which are known to lose Purkinje's cells after three-weeks of age and then induce a spontaneous onset of kinetic motor ataxia after seven-weeks of age (see Akita K. et al., “J. Neurogenetics”, Vol. 21, pp. 19-29, 2007), had been fed at Hayashibara Biochemical Laboratories., Inc., Okayama, Japan, were randomly allocated to the test groups 1 to 5, five heads in each group, as shown in Table 2. Prior to the onset of cerebellar A (at three-weeks of age), PBS was started to administer to the hamsters in the test group 1 at a dose of 10 ml/kg/day. Prior to the onset of cerebellar A (at three-weeks of age), NK-4 was started to be administered to the hamsters in the test groups 2 to 4 at a daily dose of 20 μg/kg, 100 μg/kg or 500 μg/kg. “IGF-1, human, a product name of insulin-like growth factor, commercialized by Assaypro LLC, MO, USA. These administered ingredients were intraperitoneally administered daily to hamsters once a day up to 10-weeks of age. The degree of symptom of cerebellar A and the improvement effect on the symptom by NK-4 were evaluated with an index of improvement in motor coordination of hamsters by conducting once a week the later described rotarod test and the slant tolerance test. At the age of 10-weeks, the hamsters were subjected to counting the falling down frequency and extracted their brains, which were then histologically evaluated. In parallel, the concentration of glutamic acid in the bloods and cerebrospinal fluids (CSF) of the hamsters was assayed. As a test group 6, five normal hamsters, with the same age as the hamsters with cerebellar A used in the test groups 1 to 5, were provided and tested similarly as the hamsters with cerebellar A in such a manner of intraperitoneally administering PBS to them at a dose of 10 ml/kg/day once a day up to 10-weeks of age.
As an index for coordinated movement, it was used a duration time of hamster's movement to staying on a rotarod by locomotion in synchronization with the turn of the rotarod; placing a hamster on an apparatus with a rotarod (having a diameter of 60 mm, prepared by Hayashibara Biochemical Laboratories, Inc., Okayama, Japan), turning at a constant rate of six rpm, and measuring the time until the hamster falls down from the rotarod (see Fernandez et al., “Proc. Natl. Acad. Sci. USA”, Vol. 95, pp. 1253-1258, 1998). The test was repeated six times for each hamster, where five-times of tests starting from the initiation of the test were made as a preliminary examination, and the time until each hamster fell down from the rotarod (called “falling time”, hereinafter) was measured, followed by averaging the falling times for each group consisting of five heads. The falling time was measured until 180 seconds. Based on the results, the relationship between the age and the falling time for each hamster with cerebellar A (test group 1) administered with PBS was graphed. […]
Similarly as in Experiment 2, 130 hamsters with cerebellar ataxia, born within the same week and 3-weeks of age, were randomly divided into 13 groups, consisting of 10 hamsters, respectively. […]

[2] = test system: hamsters with cerebellar ataxia; assay: Concentration of glutamic acid in cerebrospinal fluid (CSF); conditions: 10-weeks of age, 25 μg/kg body weight
Description: as §1
The content of glutamic acid, which is used for synthesizing gamma-amino butyric acid (GABA) as a main excitatory neurotransmitter and inhibitory neurotransmitter that regulate higher-order functions such as memory/learning in mammalian central nervous system, was assayed. In harvesting the brains from the above hamsters, they were blooded from their postcavas, followed by collecting CSF for use in the later described assay for glutamic acid concentration. […]

[3] = Body weight of hamsters with cerebellar ataxia during administration; conditions: compared between groups administered with PBS, NK-4 and IGF-1
[4] = test system: hamsters with cerebellar ataxia; assay: Histological evaluation of cerebellum of hamsters with cerebellar ataxia; conditions: 10-weeks of age, 25 μg/kg body weight
Description: as §1
Hamsters, 10-weeks of age, after completion of test on coordinated movement such as a confirmation of falling down frequency were intraperitoneally received 50 mg/kg pentobarbital, bled from their postcavas to let them die, and extracted their cerebra and cerebella, followed by fixing them with a 10% by volume of formalin solution. The resulting cerebra and cerebella were photographed with a digital camera apart from a prescribed high position and measured diameters in sagittal and horizontal directions for each photograph. The volumes of cerebra and cerebella were respectively determined by calculating with the formula, (length of sagittal direction)^2×(length of horizontal direction)×0.5; and the data from five heads in each group were averaged. The hamsters with cerebella A used in this experiment are known to reduce cell density of Purkinje's cells and granular cells. Cerebellar slices, which had been cut out in sagittal direction, were stained with hematoxylin-eosin stain, and microscopically observed to count the total number of Purkinje's cells within a Purkinje's cell layer ([…] I to X) and the number of granular cells per unit area, and to confirm subjects in which demyelination was observed within their cerebellar white matters. The results are in Table 5 in parallel.

[5] = test system: hamsters with cerebellar ataxia; assay: Slant tolerance test in hamsters with cerebellar ataxia; conditions: cerebellar ataxia hamsters, 25 μg/kg body weight i.p. once a day
Description: as §1
Hamsters were placed on a slope-angle-variable-board while keeping their heads upward, followed by determining the angle for allowing the hamsters to keep staying thereupon for five seconds for use as an endurable-slant-slope-angle test (see Rivlin et al., “J. Neurosurg.”, Vol. 47, pp. 577-581, […]). The initial slope angle was set to 25 degrees and increased by 5 degrees step by step. When a tested hamster in a static condition fell down within five seconds, the slope angle was decreased by one degree step by step, followed by judging the angle that allows the hamster to keep static staying for five seconds, measuring the tolerable slant-slope-angle, and averaging the data for five heads in each group.
(§2) Similarly as in Experiment 2, 130 hamsters with cerebellar ataxia, born within the same week and 3-weeks of age, were randomly divided into 13 groups, consisting of 10 hamsters, respectively. […] The hamsters (10 heads) in the remaining one group were intraperitoneally administered from their age of 3- to 10-weeks with a sterilized 10% maltose solution (pyrogen-free) in an amount of 0.5 ml/hamster (control) once a day for 56 days At the next day after the end of the administration, body weight of each hamster was weighed, followed by performing rotarod test, slope endurance test, and counting of falling down frequency. The types of compounds applied to each group and the results are in Table 25.

[6] = test system: hamsters with cerebellar ataxia; assay: Falling down frequency of hamsters with cerebellar ataxia; conditions: cerebellar ataxia hamsters, 10-weeks of age; 25 μg/kg body weight i.p. once a day
Description: as §1
Hamsters, 10-weeks of age, were respectively housed in a breeding cage. Their falling down frequencies within one minute were counted under a macroscopic observation and the data from five heads in each group were averaged. For reference, the hamsters with cerebellar A used in this experiment are known to increase their falling down frequencies after nine weeks of age.
as §2

In the case of “IGF-1: insulin-like growth factor, human, commercialized by Assaypro LLC”, the “Delayed days until the onset of cerebellar ataxia in hamster” value (from here on “Delayed days until the onset”) ([1]; 5-Weeks) is reported as 1 days, the “Delayed days until the onset” value ([1]; 6-Weeks) is reported as 8 days and the “Delayed days until the onset” value ([1]; 7-Weeks) is reported as 1 days. The “Delayed days until the onset” value ([1]; 8-Weeks) was 1 days, the “Delayed days until the onset” value ([1]; 9-Weeks) was 0 days and the “Delayed days until the onset” value ([1]; 10-Weeks) was 0 days. The “time (sec) endured until falling from rotarod apparatus” value (from here on “time (sec) endured until falling”) ([1]; 4-Weeks) was 126 ± 11 s, the “time (sec) endured until falling” value ([1]; 5-Weeks) was 63 ± 13 s and the “time (sec) endured until falling” value ([1]; 6-Weeks) was 43 ± 11 s. For the same substance, the “time (sec) endured until falling” value ([1]; 7-Weeks) was 21 ± 5 s, the “time (sec) endured until falling” value ([1]; 8-Weeks) was 9 ± 2 s and the “time (sec) endured until falling” value ([1]; 9-Weeks) was 6 ± 1 s. For the same substance, the “time (sec) endured until falling” value ([1]; 10-Weeks) was 6 ± 1 s, the “Concentration of glutamic acid in cerebrospinal fluid” value [2] was 7.9 ± 2.0 µM and the “body weight of hamsters with cerebellar A, weighed once every week up to 10-weeks of age” value [3] was “no significant difference”. The “Cerebellar volume (mm^3)” value ([4]; cerebellar ataxia hamsters) was 77.6 ± 6.1* mm^3, the “Number of Purkinje cells (cells)” value ([4]; cerebellar ataxia hamsters) was 71 ± 16 cells and the “Number of granular cells (cells/20000 μm^2)” value ([4]; cerebellar ataxia hamsters) was 371 ± 11 cells/20000 μm^2. The “Number of subject (head) with apparent demyelination in cerebellar white matter” value ([4]; five heads per group) was 3 head, the “endurable-slant-slope-angle (degree)” value ([5]; 4-Weeks) was 44.4 ± 0.2 degree and the “endurable-slant-slope-angle (degree)” value ([5]; 5-Weeks) was 41.8 ± 0.6 degree. The “endurable-slant-slope-angle (degree)” value ([5]; 6-Weeks) was 40.2 ± 0.7 degree, the “endurable-slant-slope-angle (degree)” value ([5]; 7-Weeks) was 41.6 ± 0.8 degree and the “endurable-slant-slope-angle (degree)” value ([5]; 8-Weeks) was 35.6 ± 0.2 degree. For the same substance, the “endurable-slant-slope-angle (degree)” value ([5]; 9-Weeks) was 35.2 ± 0.6 degree, the “endurable-slant-slope-angle (degree)” value ([5]; 10-Weeks) was 33.0 ± 0.9 degree and the “Falling down frequency (frequency/min)” value [6] was 11.4 ± 0.4 frequency/min.
